Reference: US10072011B2, “Substituted bridged urea analogs as sirtuin modulators” (GlaxoSmithKline Intellectual Property (No.2) Limited, priority 2014, dated 2018)

Molecular target: T1, SIRT1 (Homo sapiens, UniProt Q96EB6)
T1 sequence (Q96EB6 1-747): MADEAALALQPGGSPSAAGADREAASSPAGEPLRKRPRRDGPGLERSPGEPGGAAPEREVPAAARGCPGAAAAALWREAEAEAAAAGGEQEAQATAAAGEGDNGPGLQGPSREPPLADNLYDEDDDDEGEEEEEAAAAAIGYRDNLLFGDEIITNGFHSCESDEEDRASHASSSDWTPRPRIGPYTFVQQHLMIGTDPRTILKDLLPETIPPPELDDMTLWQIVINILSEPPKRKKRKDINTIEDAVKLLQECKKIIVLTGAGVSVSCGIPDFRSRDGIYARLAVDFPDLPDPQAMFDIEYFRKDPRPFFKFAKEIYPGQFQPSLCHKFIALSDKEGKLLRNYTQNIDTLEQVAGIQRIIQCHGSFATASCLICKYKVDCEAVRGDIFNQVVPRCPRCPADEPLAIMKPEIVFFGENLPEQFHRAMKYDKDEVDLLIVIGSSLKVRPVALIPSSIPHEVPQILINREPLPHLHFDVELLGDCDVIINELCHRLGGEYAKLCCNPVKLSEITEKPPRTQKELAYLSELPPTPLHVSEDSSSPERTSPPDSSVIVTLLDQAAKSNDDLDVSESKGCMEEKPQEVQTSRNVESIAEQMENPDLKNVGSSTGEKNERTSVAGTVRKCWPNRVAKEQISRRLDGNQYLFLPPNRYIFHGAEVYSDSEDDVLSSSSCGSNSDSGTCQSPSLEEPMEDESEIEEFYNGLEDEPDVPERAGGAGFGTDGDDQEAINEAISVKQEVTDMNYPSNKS
Test: Trp mass spectrometry assay of SIRT1 activation (Ac-R-H-K-K(Ac)-W-NH2 peptide)
Type: biochemical
Settings: Trp peptide 0.5 μM, 120 μM βNAD+, 10 nM SIRT1, 25 min at 25° C.; for Emax: 25 min, relative to control (100%), read-out: TRP MAX RESP (percent maximum fold activation)
Description: The Trp mass spectrometry assay was conducted as follows. […] The SIRT1 protein was obtained by cloning the SirT1 gene into a T7-promoter containing vector, which was then expressed in BL21(DE3) bacterial cells and purified as described in further detail below. Test compound was added at varying concentrations to this reaction mixture and the resulting reactions were monitored. After the 25 minute incubation with SIRT1, 10 μL of 10% formic acid was added to stop the reaction. The resulting reactions were sealed and frozen for later mass spec analysis. The relative SIRT1 activity was then determined by measuring the amount of O-acetyl-ADP-ribose (OAADPR) formed (or, alternatively, the amount of deacetylated Trp peptide generated) by the NAD-dependent sirtuin deacetylation reaction in the presence of varying concentrations of the test compound versus control reactions lacking the test compound. The degree to which the test agent activated deacetylation by SIRT1 was expressed as EC1.5 (i.e., the concentration of compound required to increase SIRT1 activity by 50% over the control lacking test compound), and Percent Maximum Activation (i.e., the maximum activity relative to control (100%) obtained for the test compound).
This time point was the same as that used for test compounds and, within the linear range, the endpoint represents a change in velocity.
For the above assay, SIRT1 protein was expressed and purified as follows. The SirT1 gene was cloned into a T7-promoter containing vector and transformed into BL21(DE3). The protein was expressed by induction with 1 mM IPTG as an N-terminal His-tag fusion protein at 18° C. overnight and harvested at 30,000×g. Cells were lysed with lysozyme in lysis buffer (50 mM Tris-HCl, 2 mM Tris[2-carboxyethyl]phosphine (TCEP), 10 μM ZnCl2, 200 mM NaCl) and further treated with sonication for 10 min for complete lysis. The protein was purified over a Ni-NTA column (Amersham) and fractions containing pure protein were pooled, concentrated and run over a sizing column (Sephadex S200 26/60 global). The peak containing soluble protein was collected and run on an Ion-exchange column (MonoQ). Gradient elution (200 mM-500 mM NaCl) yielded pure protein. This protein was concentrated and dialyzed against dialysis buffer (20 mM Tris-HCl, 2 mM TCEP) overnight. The protein was aliquoted and frozen at −80° C. until further use.
“NT” means not tested; “ND” means not determinable.

SMILES | Emax | TRP Activity (EC1.5, concentration of test compound that results in 150% activation of SIRT1)
Cc1ncc(-c2ccnc(NC(=O)N3c4nc(C(=O)NCC5CC5)ccc4N4CC[C@H]3C4)c2)o1 [Example 114, (4S)—N7-(cyclopropylmethyl)-N5-(4-(2-methyloxazol-5-yl)pyridin-2-yl)-3,4-dihydro-1,4-methanopyrido[2,3-b][1,4]diazepine-5,7(2H)-dicarboxamide] | > 150% | B (EC1.5 1-25 μM)
O=C(N[C@H](C1CC1)C(F)(F)F)c1ccc2c(n1)N(C(=O)Nc1ccccn1)[C@H]1CCN2C1 [Example 46, (4S)—N7-((R)-1-cyclopropyl-2,2,2-trifluoroethyl)-N5-(pyridin-2-yl)-3,4-dihydro-1,4-methanopyrido[2,3-b][1,4]diazepine-5,7(2H)-dicarboxamide] | > 150% | A (EC1.5<1 μM)
O=C(NC1CC1(F)F)c1ccc2c(n1)N(C(=O)Nc1cccnn1)[C@H]1CCN2C1 (single isomer, unassigned) [Example 270] | > 150% | A (EC1.5<1 μM)
Cc1ccc(NC(=O)N2c3nc(C(=O)NC4CC4)ccc3N3CC[C@H]2C3)nc1 [Example 215, (4S)—N7-cyclopropyl-N5-(5-methylpyridin-2-yl)-3,4-dihydro-1,4-methanopyrido[2,3-b][1,4]diazepine-5,7(2H)-dicarboxamide] | > 150% | B (EC1.5 1-25 μM)
C#C[C@H](C)NC(=O)c1ccc2c(n1)N(C(=O)Nc1ccccn1)[C@H]1CCN2C1 [Example 142, (4S)—N7-((S)-but-3-yn-2-yl)-N5-(pyridin-2-yl)-3,4-dihydro-1,4-methanopyrido[2,3-b][1,4]diazepine-5,7(2H)-dicarboxamide] | > 150% | A (EC1.5<1 μM)
C[C@@H](NC(=O)c1ccc2c(n1)N(C(=O)NCC(=O)N(C)C)[C@H]1CCN2C1)C(F)(F)F [Example 217, (4S)—N5-(2-(dimethylamino)-2-oxoethyl)-N7-((R)-1,1,1-trifluoropropan-2-yl)-3,4-dihydro-1,4-methanopyrido[2,3-b][1,4]diazepine-5,7(2H)-dicarboxamide] | > 150% | B (EC1.5 1-25 μM)
COCC(NC(=O)c1ccc2c(n1)N(C(=O)Nc1ccccn1)[C@H]1CCN2C1)C1CC1 (single isomer, unassigned) [Example 59] | > 150% | A (EC1.5<1 μM)
CC(C#N)NC(=O)c1ccc2c(n1)N(C(=O)Nc1ccccn1)[C@H]1CCN2C1 (single isomer, unassigned) [Example 103] |  | A (EC1.5<1 μM)
O=C(NCC1CC1)c1ccc2c(n1)N(C(=O)Nc1cccnn1)[C@H]1CCN2C1 [Example 96, (4S)—N7-(cyclopropylmethyl)-N5-(pyridazin-3-yl)-3,4-dihydro-1,4-methanopyrido[2,3-b][1,4]diazepine-5,7(2H)-dicarboxamide] | > 150% | A (EC1.5<1 μM)

Second part, the molecule after the results:

Emax | TRP Activity (EC1.5, concentration of test compound that results in 150% activation of SIRT1) | SMILES
> 150% | A (EC1.5<1 μM) | Cc1ccnc(NC(=O)N2c3nc(C(=O)N[C@H](C)C(F)(F)F)ccc3N3CC[C@H]2C3)c1 [Example 55, (4S)—N5-(4-methylpyridin-2-yl)-N7-((R)-1,1,1-trifluoropropan-2-yl)-3,4-dihydro-1,4-methanopyrido[2,3-b][1,4]diazepine-5,7(2H)-dicarboxamide]
> 150% | A (EC1.5<1 μM) | C[C@@H](NC(=O)c1ccc2c(n1)N(C(=O)Nc1ccsn1)[C@H]1CCN2C1)C(F)(F)F [Example 190, (4S)—N5-(isothiazol-3-yl)-N7-((R)-1,1,1-trifluoropropan-2-yl)-3,4-dihydro-1,4-methanopyrido[2,3-b][1,4]diazepine-5,7(2H)-dicarboxamide]
> 150% | A (EC1.5<1 μM) | C[C@@H](NC(=O)c1ccc2c(n1)N(C(=O)Nc1nccc(OC[C@H](O)CO)n1)[C@H]1CCN2C1)C(F)(F)F [Example 244, (4S)—N5-(4-((R)-2,3-dihydroxypropoxy)pyrimidin-2-yl)-N7-((R)-1,1,1-trifluoropropan-2-yl)-3,4-dihydro-1,4-methanopyrido[2,3-b][1,4]diazepine-5,7(2H)-dicarboxamide]
> 150% | B (EC1.5 1-25 μM) | C[C@@H](NC(=O)c1ccc2c(n1)N(C(=O)Nc1cc(C(=O)O)ccn1)[C@H]1CCN2C1)C(F)(F)F [Example 225, 2-((4S)-7-(((R)-1,1,1-trifluoropropan-2-yl)carbamoyl)-2,3,4,5-tetrahydro-1,4-methanopyrido[2,3-b][1,4]diazepine-5-carboxamido)isonicotinic acid]
> 150% | A (EC1.5<1 μM) | CC[C@@H](NC(=O)c1ccc2c(n1)N(C(=O)Nc1cc(OC[C@H](O)CO)ccn1)[C@H]1CCN2C1)C(F)(F)F [Example 90, (4S)—N5-(4-((R)-2,3-dihydroxypropoxy)pyridin-2-yl)-N7-((R)-1,1,1-trifluorobutan-2-yl)-3,4-dihydro-1,4-methanopyrido[2,3-b][1,4]diazepine-5,7(2H)-dicarboxamide]
> 150% | A (EC1.5<1 μM) | C[C@@H](NC(=O)c1ccc2c(n1)N(C(=O)Nc1ccc(OC[C@H](O)CO)nn1)[C@H]1CCN2C1)C(F)(F)F [Example 193, (4S)—N5-(6-((R)-2,3-dihydroxypropoxy)pyridazin-3-yl)-N7-((R)-1,1,1-trifluoropropan-2-yl)-3,4-dihydro-1,4-methanopyrido[2,3-b][1,4]diazepine-5,7(2H)-dicarboxamide]
< 150% | A (EC1.5<1 μM) | C[C@@H](NC(=O)c1ccc2c(n1)N(C(=O)Nc1cc(CCC(O)CO)ccn1)[C@H]1CCN2C1)C(F)(F)F (single isomer, unassigned) [Example 302]
> 150% | A (EC1.5<1 μM) | C[C@@H](NC(=O)c1ccc2c(n1)N(C(=O)Nc1ncc(OC[C@H](O)CO)cn1)[C@H]1CCN2C1)C(F)(F)F [Example 173, (4S)—N5-(5-((R)-2,3-dihydroxypropoxy)pyrimidin-2-yl)-N7-((R)-1,1,1-trifluoropropan-2-yl)-3,4-dihydro-1,4-methanopyrido[2,3-b][1,4]diazepine-5,7(2H)-dicarboxamide]
> 150% | A (EC1.5<1 μM) | C[C@@H](NC(=O)c1ccc2c(n1)N(C(=O)Nc1cc(OCCCO)ccn1)[C@H]1CCN2C1)C(F)(F)F [Example 266, (4S)—N5-(4-(3-hydroxypropoxy)pyridin-2-yl)-N7-((R)-1,1,1-trifluoropropan-2-yl)-3,4-dihydro-1,4-methanopyrido[2,3-b][1,4]diazepine-5,7(2H)-dicarboxamide]
